Patent publication US6632981B1, “DNA sequences encoding polypeptides having beta-1,3-glucanase activity” (Novartis Finance Corporation, priority 1988, dated 2003)

What was measured:
chimeric PR-1a/GUS gene [1] = test: GUS induction in transformed carrot callus; format: cell-based; settings: carrot callus transformed by pCIB271; 50 mM sodium salicylate or 250 g/l methyl ester spray; 21 hours; H2O spray 5.2
Method: To surface sterilize the carrots they are peeled and then soaked 20 minutes in a 10% solution of chlorox. The carrots are rinsed with sterile water, sliced into 5 mm pieces and placed basal side up onto water agar. 20-50 l of bacteria are then applied to the upper surface of the discs. After 7 days the discs are transferred to 0.7% agar containing MS salts, 3% sucrose, 0.1 mg/l 2,4-D, […] kanamycin, 100 µg/ml carbenicillin, and 100 µg/ml mefoxin. Callus forming around the cambial ring is excised and placed on 0.7% MS agar supplemented with 3% sucrose, 0.1 mg/l 2,4-D, […] kanamycin, 100 µg/ml carbenicillin, and 100 µg/ml mefoxin. After the callus has been grown it is cut into small pieces and randomized onto four plates of the same media. […]
(§1) The reactions are carried out in the wells of ELISA plates by mixing 5-25 l extract with 120-100 l GUS assay buffer (50 mM sodium phosphate buffer pH 7.0, 0.1% Triton X-100, 10 mM β-mercaptoethanol) containing 4-methyl umbelliferyl glucuronide (MU) at a final concentration of 2 mM in a total volume of 125 l. […] The concentration of fluorescent indicator released is determined by reading the plate on a Flow Labs Fluoroskan II ELISA plate reader.

chimeric PR-1a/GUS gene [2] = test: GUS induction in transformed tomato callus; format: cell-based; settings: 250 g/l spray, 21 hours
Method: Agrobacterium strains containing the appropriate vectors as described above (e.g. CIB270, CIB271, CIB272, CIB273, pCIB271×15955, pCIB271 X A208, pCIB271 X A281, pCIB271 X A4, pCIB272 X 15955, pCIB272 X A208, pCIB272 X A281, pCIB272 X A4, pCIB273 X 15955, pCIB273 X A208, pCIB273 X A281, and pCIB273 X A4) are grown as described in Example 112. The bacteria, diluted to an OD600 of 0.2-0.4, are then used for inoculation of stems of tomato seedlings prepared as described below.
Tomato seeds are soaked 20 min in 10% chlorox and rinsed with sterile water. […]
After one week the inoculated stems are cut and placed on 0.7% agar containing MS salts, 3% sucrose, […] 6-benzylaminopurine, 100 µg/ml carbenicillin, 100 µg/ml mefoxim, and 50 µg/ml kanamycin. […] The callus is transferred to fresh media every two weeks until sufficient quantity is obtained for 4 plates. […]
as §1

chimeric PR-1a/GUS gene [3] = test: Transient GUS expression in tobacco protoplasts treated with pCIB269; format: cell-based, N. tabacum; settings: H2O 30.6 13
Method: B. DNA is introduced into protoplasts by a modification of the method of Negrutiu, I. et al., Plant Mol. Biol. 8: 363 (1987). The protoplasts prepared as described in part A are resuspended following the last washing step in a solution consisting of 0.4 M mannitol, 15-30 mM CaCl2, 0.1% w/v MES at a density of 1.6-2×10^6 per ml. The protoplast suspension is distributed as 0.5 ml aliquots into 10 ml plastic centrifuge tubes. DNA such as that described in Examples 28 to 40 is added in 10 l sterile distilled water, sterilized as described by Paszkowski, J. et al., EMBO J. 3: 2717 (1984), and then 0.5 ml of the PEG solution (40% (w/v) PEG MW 8000 in 0.4 M mannitol, 0.1 M Ca(NO3)2, pH 7.0) is added. The solutions are mixed gently and incubated for 30 minutes at room temperature (about 24° C.) with occasional shaking. 1 ml of the wash solution is then added, and the contents of the tube gently mixed. […]
as §1

Compound | GUS activities (chimeric PR-1a/GUS gene [1]) | GUS activities (chimeric PR-1a/GUS gene [2]; tomato callus transformed with CIB271, H2O spray 17.2) | GUS activities (chimeric PR-1a/GUS gene [2]; tomato callus transformed with CIB273 X A4, H2O spray 4.6) | GUS activity, transient expression (chimeric PR-1a/GUS gene [3])
COC(=O)c1cccc2nnsc12 [Methyl benzo-1,2,3-thiadiazole-7-carboxylate] | 22.1 pKat MU/mg protein | 56.1 pKat MU/mg protein | 22.1 pKat MU/mg protein | 66.6 pKat MU/mg protein
O=C(O)c1ccccc1O [Salicylic acid, salicylic acid] | 11.6 pKat MU/mg protein | – | – | –
